Counter-ions that a name gives are not always drawn. Like-named read-outs stand apart in the source and are kept apart here.
Key:
[1] = molecular target: T1, Human recombinant PTP1B (Homo sapiens, UniProt P18031); assay type: biochemical; conditions: read-out: IC50
T1 construct: made in house
T1 sequence (P18031 1-435): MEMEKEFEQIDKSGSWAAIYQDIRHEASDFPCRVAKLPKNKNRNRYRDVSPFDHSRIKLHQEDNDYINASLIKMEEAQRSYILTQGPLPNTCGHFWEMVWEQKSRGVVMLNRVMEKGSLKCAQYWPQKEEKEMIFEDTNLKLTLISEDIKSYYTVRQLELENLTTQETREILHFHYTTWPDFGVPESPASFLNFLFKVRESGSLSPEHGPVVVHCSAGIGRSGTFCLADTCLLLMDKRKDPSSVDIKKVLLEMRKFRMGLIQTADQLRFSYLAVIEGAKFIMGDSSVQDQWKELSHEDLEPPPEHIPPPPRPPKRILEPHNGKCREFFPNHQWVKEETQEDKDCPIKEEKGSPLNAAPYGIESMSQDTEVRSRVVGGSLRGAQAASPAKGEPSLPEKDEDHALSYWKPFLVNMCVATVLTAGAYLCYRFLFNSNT

[2] = system: diabetic (ob/ob) mice; assay: Blood glucose lowering activity in diabetic (ob/ob) mice; assay type: in vivo, mouse; conditions: for change in vivo at 100 mg/kg / change in vivo at 25 mg/kg / change in vivo at 10 mg/kg / change in vivo at 5 mg/kg / change in vivo at 95 mg/kg: Mus musculus, po
Protocol: The blood glucose lowering activity of representative compounds of this invention were determined in an in vivo standard procedure using diabetic (ob/ob) mice. The procedures used and results obtained are briefly described below. The non-insulin dependent diabetic (NIDDM) syndrome can be typically characterizes by obesity, hyperglycemia, abnormal insulin secretion, hyperinsulinemia and insulin resistance. […] In each test procedure, mice [Male or female ob/ob (C57 B1/6J) and their lean litermates (ob+ or +/+, Jackson Laboratories) ages 2 to 5 months (10 to 65 g)] of a similar age were randomized according to body weight into 4 groups of 10 mice. The mice were housed 5 per cage and are maintained on normal rodent chow with water ad libitum. Mice received test compound daily by gavage (suspended in 0.5 ml of 0.5% methyl cellulose); dissolved in the drinking water; or admixed in the diet. […] The dose is calculated based on the fed weekly body weight and is expressed as active moiety. […] Control mice received vehicle only. On the morning of Day 4, 7 or 14 two drops of blood (approximetly 50 ul) were collected into sodium fluoride containing tubes either from the tail vein or after decapitation. For those studies in which the compound was administered daily by gavage the blood samples were collected two hours after compound administration. The plasma was isolated by centrifugation and the concentration of glucose is measured enzymatically on an Abbott V. P. Analyzer. […] Analysis of variance followed by Dunett's Comparison Test (one-tailed) are used to estimate the significant difference between the plasma glucose values from the control group and the individual compound treated groups (CMS SAS Release 5.18).

[3] = system: rat hepatic microsomal PTPases; conditions: PTPase activity, compound at 50 μM
[4] = 96 h, ob/ob mice, plasma glucose Day 4, 7 or 14, read-out: % Change Glucose from Vehicle
[5] = ob/ob mice, read-out: % Change Insulin from Vehicle
[6] = 96 h, ob/ob mice, dose 25 mg/Kg, plasma glucose Day 4, 7 or 14, read-out: % Change Glucose from Vehicle
[7] = ob/ob mice, dose 25 mg/Kg, read-out: % Change Insulin from Vehicle

| SMILES | IC50 [1] [nM] | change in vivo at 100 mg/kg [2, 4] [%] | change in vivo at 100 mg/kg [2, 5] [%] | % Change from Control [3] [%] | change in vivo at 25 mg/kg [2, 6] [%] | change in vivo at 25 mg/kg [2, 7] [%] | further results |
| --- | --- | --- | --- | --- | --- | --- | --- |
| O=C(O)C(Cc1c[nH]c2ccccc12)Oc1c(Br)cc(-c2c3ccccc3c(Br)c3sc4ccccc4c23)cc1Br (racemic) [Example 122, (R,S)-2-[2.6-Dibromo-4-(6-bromo-benzo[b]naphtho[2,3-d]thiophen-11-yl)-phenoxy]-3-(1 H-indol-3-yl)-propionic acid] | 36 | -28.1 | -37.4 | -85.46 | – | – | – |
| COc1c2ccccc2c(-c2cc(Br)c(O[C@H](Cc3ccccc3)C(=O)O)c(Br)c2)c2c1sc1ccccc12 [Example 126, (R)-2-[2,6-Dibromo-4-(6-methoxy-benzo[b]naphtho[2,3-d]thiophen-11-yl)-phenoxy]-3-phenyl-propionic acid] | 298 | – | – | -78.77 | -28.6 | -62.4 | – |
| C[C@@H](Oc1c(Br)cc(-c2c3ccccc3c(Br)c3sc4ccccc4c23)cc1Br)C(=O)O [Example 121, (R)-2-[2,6-Dibromo-4-(6-bromo-benzo[b]naphtho[2,3-d]thiophen-11-yl)-phenoxy]-propionic acid] | 184 | -54.6 | -87.8 | -74.70 | – | – | change in vivo at 10 mg/kg [2, 4]: 1.37%; change in vivo at 10 mg/kg [2, 5]: -41.8% |
| C[C@@H](Oc1c(Br)cc(-c2c3ccccc3c(I)c3sc4ccccc4c23)cc1Br)C(=O)O [Example 135, (R)-2-[2,6-Dibromo-4-(6-iodo-benzo[b]naphtho[2,3-d]thiophen-11-yl]-phenoxy]-propionic acid] | 209 | – | – | -59.75 | -15.8 | -57.4 | – |
| O=C(O)[C@@H](Cc1ccccc1)Oc1c(Br)cc(-c2c3ccccc3c(Br)c3sc4ccccc4c23)cc1Br [Example 109, (R)-2-[2,6-Dibromo-4-(6-bromo-benzo[b]naphtho[2,3-d]thiophen-11-yl)-phenoxy]-3-phenyl-propionic acid, sodium salt] | 71 | – | – | – | – | – | % Change Glucose from Vehicle ([2]; ob/ob mice, dose 25 mg/Kg, plasma glucose Day 4, 7 or 14, sodium salt, 25 mg/kg): -26.31%; % Change Insulin from Vehicle ([2]; ob/ob mice, dose 25 mg/Kg, sodium salt): -71.64%; % Change from Control ([3]; sodium salt, 50 µM): -66.67% |
| Oc1cc(-c2c3ccccc3c(Br)c3sc4ccccc4c23)cc(Br)c1O [Example 70, 3-Bromo-5-(6-bromo-benzo[b]naphtho[2,3-d]thiophen-11-yl)-benzene-1,2-diol] | 74 | – | – | -29.03 | -28.6 | 45.7 | – |
| O=C(O)[C@@H](Cc1ccccc1)Oc1ccc(-c2c3ccccc3cc3sc4ccccc4c23)cc1 [Example 117, (R)-2-[4-(Benzo[b]naphtho[2,3-d]thiophen-11-yl)-phenoxy]-3-phenyl-propionicacid] | 1510 | -14.5 | -83.8 | -79.06 | – | – | – |
| O=C(O)[C@@H](Cc1ccccc1)Oc1c(I)cc(-c2c3ccccc3cc3sc4ccccc4c23)cc1I [Example 131] | – | – | – | -66.21 | -3.63 | -67.5 | – |
| O=C(O)[C@@H](CCN1C(=O)c2ccccc2C1=O)Oc1c(Br)cc(-c2c3ccccc3cc3sc4ccccc4c23)cc1Br [Example 146, (R)-2-(4-Benzo[b]naphtho[2,3-d]thiophen-11-yl-2,6-dibromo-phenoxy)-4-(1,3-dioxo-1 , 3-dihydro-isoindol-2-yl)-butyric acid] | 64 | -45.8 | -56.2 | -71.95 | – | – | – |
| CC1(COc2ccc(CC3SC(=O)NC3=O)cc2)CCCCC1 (stereo not shown) [Ciglitazone, 5-(4-(1-methylcyclohexylmethoxy)benzyl)-2,4-dione, reference compound] | – | -43 | -39 | – | – | – | lowering in plasma glucose (in words) ([2]; positive control, 100 mg/kg/day): significant lowering in plasma glucose |
| N#Cc1c2ccccc2c(-c2cc(Br)c(O[C@@H](Cc3ccccc3)C(=O)O)c(Br)c2)c2c1sc1ccccc12 [Example 115, (S)-2-[2,6-Dibromo-4-(6-cyano-benzo[b]naphtho[2,3-d]thiophen-11-yl)-phenoxy]-3-phenyl-propionic acid] | 279 | -33.9 | 52 | -55.43 | – | – | – |
| O=C(O)[C@@H](Cc1ccccc1)Oc1c(Br)cc(-c2c3c(c(Br)c4ccccc24)S(=O)(=O)c2ccccc2-3)cc1Br [Example 189] | 1390 | -46.8 | 11 | -89.32 | – | – | – |
| O=C(O)[C@H](Cc1ccccc1)Oc1c(Br)cc(-c2c3ccccc3c(Br)c3sc4ccccc4c23)cc1Br [Example 111, (S)-2-[2,6-Dibromo-4-(6-bromo-benzo[b]naphtho[2,3-d]thiophen-11-yl)-phenoxy]-3-phenyl-propionic acid] | 62 | -39.4 | -17.9 | -76.45 | – | – | – |
| O=C(O)[C@@H](Cc1ccccc1)Oc1c(Br)cc(-c2c3ccccc3c(Br)c3oc4ccccc4c23)cc1Br [Example 216, (R)-2-[2,6-Dibromo-4-(6-bromo-benzo[b]naphtho[2,3-d]furan-11-yl)-phenoxy]-3-phenyl-propionic acid] | 83 | – | – | -60.67 | – | – | change in vivo at 5 mg/kg [2, 4]: -14.8%; change in vivo at 10 mg/kg [2, 4]: -28.7%; change in vivo at 5 mg/kg [2, 5]: -55.9%; change in vivo at 10 mg/kg [2, 5]: -69.4% |
| O=C(O)[C@@H](Cc1ccccc1)Oc1c(Br)cc(-c2c3ccccc3c(I)c3sc4ccccc4c23)cc1Br [Example 136] | 50 | – | – | -63.42 | -23.6 | -52 | – |
| O=C(O)C(Cc1ccc(F)cc1)Oc1c(Br)cc(-c2c3ccccc3c(Br)c3sc4ccccc4c23)cc1Br (stereo not shown) [Example 155, 2-[2,6-Dibromo-4-(6-bromo-benzo[b]naphtho[2,3-d]thiophen-11-yl)-phenoxy]-3-(4-fluoro-phenyl)-propionic acid] | 56 | – | – | -82.25 | -28.9 | -63.2 | – |
| O=C(O)[C@@H](Cc1ccccc1)Oc1c(Br)cc(-c2c3ccccc3c(Cl)c3sc4ccccc4c23)cc1Br [Example 127, (R)-2-{2,6-Dibromo-4-(6-chloro-benzo[b]naphtho[2,3-d]thiophen-11-yl)-phenoxy}-3-phenyl-propionic acid] | 64 | – | – | -37.08 | -18.8 | -76.5 | – |
| O=C(O)COc1c(-c2ccccc2)cc(-c2c3ccccc3cc3sc4ccccc4c23)cc1-c1ccccc1 [Example 191] | – | – | – | – | -36.5 | -64.3 | change in vivo at 10 mg/kg [2, 4]: -22.8% |
| O=C(O)[C@@H](Cc1ccccc1)Oc1c(Br)cc(-c2c3ccccc3c(C(F)(F)F)c3sc4ccccc4c23)cc1Br [Example 125, (R)-2-[2,6-Dibromo-4-(6-trifluoromethyl-benzo[b]naphtho[2,3-d]thiophen-11-yl)-phenoxy]-3-phenyl-propionic acid] | – | – | – | -73.96 | – | – | change in vivo at 95 mg/kg [2, 4]: -27.6%; change in vivo at 95 mg/kg [2, 5]: -89.7% |
